Reference: US20220235064A1 (WELLMARKER BIO CO., LTD., priority 2019, published 2022)

Molecular target: T1, RON tyrosine kinase (Homo sapiens, UniProt Q04912)
T1 construct: purchased Carna Bioscience
Assay: Enzyme inhibitory activity against RON tyrosine kinase (TR-FRET)
Assay type: biochemical
Conditions: RON (Carna Bioscience)
Protocol: Experimental Example 1: Measurement of Enzyme Inhibitory Activity Against RON Tyrosine Kinase
To measure enzyme inhibitory activity of the example compounds against RON, IC50 values of the compounds were measured using fluorescence resonance energy transfer (FRET).
Specifically, first, RON (Carna Bioscience) was diluted in a kinase assay buffer (50 mM HEPES pH 7.5, 1 mM EGTA, 10 mM MgCl2, 2 mM DTT, and 0.01% Tween-20) to be at a concentration (0.4 nM) that is twice the final reaction concentration. The dilute was added to a 384-well-plate at 5 μl per well. Each of the example compounds was prepared at a concentration of 1 mM in 100% DMSO and diluted 8 times in a stepwise manner through 10-fold dilution. Each compound was diluted in a kinase assay buffer to be at a concentration that is 4 times the final reaction concentration. The dilute was added to a 384-well-plate at 2.5 μl per well, and incubation was performed at room temperature for 15 minutes.
Thereafter, an ATP solution (Sigma Aldrich) prepared at a concentration of 0.25 M was diluted in a kinase assay buffer to be at a concentration (60 μM) that is 4 times the final reaction concentration. Dilution of a tyrosine peptide substrate (Perkin-Elmer) was performed therein to be at a concentration (400 nM) that is 4 times the final reaction concentration. The dilute was added to a 384-well-plate at 2.5 µl per well. Reaction was allowed to proceed for 60 minutes by incubating the 384-well-plate at room temperature. Thereafter, EDTA (Sigma Aldrich) was diluted in a TR-FRET detection buffer (Perkin-Elmer) to be at a concentration (20 mM) that is twice the final reaction concentration. Dilution of a Europium-containing phosphotyrosine antibody (Perkin-Elmer) was performed in the diluted EDTA solution to be at a concentration (4 nM) that is twice the final reaction concentration, so that a stop solution for RON reaction was prepared.
The stop solution was added to the 384-well-plate at 10 μl per well to quench the reaction, and incubation was performed at room temperature for 60 minutes. Then, the 384-well-plate was read on a Victor X5 (Perkin-Elmer) plate reader. Here, the excitation wavelength was 340 nm, and the emission wavelengths were 620 nm and 665 nm. An IC50 value of the compound was derived using GraphPad Prism 5 program, in which the IC50 was derived by expressing emission energy at the wavelength of 665 nm as a function of the compound concentration.

T1 sequence (Q04912 25-1400): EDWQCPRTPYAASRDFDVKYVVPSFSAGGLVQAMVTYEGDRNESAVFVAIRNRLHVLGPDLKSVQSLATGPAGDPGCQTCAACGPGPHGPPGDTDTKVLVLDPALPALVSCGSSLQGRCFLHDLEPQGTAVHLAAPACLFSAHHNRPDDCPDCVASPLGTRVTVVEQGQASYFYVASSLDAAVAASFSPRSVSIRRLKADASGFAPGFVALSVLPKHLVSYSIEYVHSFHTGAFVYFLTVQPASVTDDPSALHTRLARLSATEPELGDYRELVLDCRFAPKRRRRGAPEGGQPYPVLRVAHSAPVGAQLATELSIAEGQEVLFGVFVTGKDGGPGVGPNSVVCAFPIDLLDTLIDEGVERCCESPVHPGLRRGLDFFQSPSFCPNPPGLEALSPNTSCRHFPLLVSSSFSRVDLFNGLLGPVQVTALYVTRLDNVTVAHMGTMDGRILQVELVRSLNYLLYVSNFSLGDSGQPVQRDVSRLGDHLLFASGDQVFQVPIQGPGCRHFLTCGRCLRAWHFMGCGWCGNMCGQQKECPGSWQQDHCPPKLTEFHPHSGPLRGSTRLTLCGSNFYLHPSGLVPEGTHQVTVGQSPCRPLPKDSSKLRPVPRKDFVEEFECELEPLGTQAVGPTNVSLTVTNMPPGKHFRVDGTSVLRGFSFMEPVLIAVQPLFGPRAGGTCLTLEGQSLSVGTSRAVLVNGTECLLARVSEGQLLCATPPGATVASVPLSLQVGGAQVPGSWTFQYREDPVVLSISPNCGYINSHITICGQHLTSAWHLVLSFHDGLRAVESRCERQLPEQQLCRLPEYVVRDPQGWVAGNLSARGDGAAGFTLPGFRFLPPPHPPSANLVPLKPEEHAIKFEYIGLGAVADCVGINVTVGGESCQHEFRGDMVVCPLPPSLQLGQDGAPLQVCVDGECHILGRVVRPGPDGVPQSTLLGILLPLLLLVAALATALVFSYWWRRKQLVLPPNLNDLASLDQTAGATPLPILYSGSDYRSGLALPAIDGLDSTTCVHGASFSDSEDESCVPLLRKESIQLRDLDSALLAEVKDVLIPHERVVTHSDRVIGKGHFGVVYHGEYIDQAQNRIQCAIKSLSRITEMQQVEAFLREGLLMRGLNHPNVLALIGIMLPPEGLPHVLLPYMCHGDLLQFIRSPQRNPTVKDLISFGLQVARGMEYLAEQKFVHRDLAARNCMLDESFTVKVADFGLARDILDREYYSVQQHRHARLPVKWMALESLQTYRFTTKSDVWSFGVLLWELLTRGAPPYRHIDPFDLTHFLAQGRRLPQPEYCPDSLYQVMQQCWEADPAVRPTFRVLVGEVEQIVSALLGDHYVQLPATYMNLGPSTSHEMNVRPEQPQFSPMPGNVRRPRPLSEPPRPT

| IC50 | Structure (SMILES) |
| --- | --- |
| 0.0349 µM | O=C(Nc1ccc(Oc2ccnc3cc(-c4ccc(CN5CCOCC5)cn4)sc23)c(F)c1)c1c2c(cn(-c3ccc(F)cc3)c1=O)CCC2 [Example 7] |
| 0.03 µM | COc1cc2nccc(Oc3ccc(NC(=O)c4c5c(cn(-c6ccc(C(F)(F)F)cc6)c4=O)CCO5)cc3F)c2cc1OC [Example 42, N-(4-((6,7-Dimethoxyquinolin-4-yl)oxy)-3-fluorophenyl)-6-oxo-5-(4-(trifluoromethyl)phenyl)-2,3,5,6-tetrahydrofuro[3,2-c]pyridine-7-carboxamide] |
| 0.00513 µM | COc1cc2nccc(Oc3ccc(NC(=O)c4c5c(cn(-c6cccc(F)c6)c4=O)CCO5)cc3F)c2cc1OC [Example 43, N-(4-((6,7-Dimethoxyquinolin-4-yl)oxy)-3-fluorophenyl)-6-oxo-5-(3-fluorophenyl)-2,3,5,6-tetrahydrofuro[3,2-c]pyridine-7-carboxamide] |
| > 1 µM | NC(=O)c1nccc(Oc2ccc(NC(=O)c3c4c(cn(-c5ccc(F)cc5)c3=O)CCO4)cc2F)c1Cl [Example 54, N-(4-((2-Carbamoyl-3-chloropyridin-4-yl)oxy)-3-fluorophenyl)-5-(4-fluorophenyl)-6-oxo-2,3,5,6-tetrahydrofuro[3,2-c]pyridine-7-carboxamide] |
| 0.00224 µM | Nc1nccc(Oc2ccc(NC(=O)c3c4c(cn(-c5ccc(F)cc5)c3=O)CCO4)cc2F)c1Cl [Example 55, N-(4-((2-Amino-3-chloropyridin-4-yl)oxy)-3-fluorophenyl)-5-(4-fluorophenyl)-6-oxo-2,3,5,6-tetrahydrofuro[3,2-c]pyridine-7-carboxamide] |
| 0.0119 µM | Nc1cc(Oc2ccc(NC(=O)c3c4c(cn(-c5ccc(F)cc5)c3=O)CCO4)cc2F)ccn1 [Example 56, N-(4-((2-Aminopyridin-4-yl)oxy)-3-fluorophenyl)-5-(4-fluorophenyl)-6-oxo-2,3,5,6-tetrahydrofuro[3,2-c]pyridine-7-carboxamide] |
| 0.0182 µM | Nc1nccc(Oc2ccc(NC(=O)c3c4c(cn(-c5ccc(F)cc5)c3=O)CCO4)cc2F)n1 [Example 57, N-(4-((2-Aminopyrimidin-4-yl)oxy)-3-fluorophenyl)-5-(4-fluorophenyl)-6-oxo-2,3,5,6-tetrahydrofuro[3,2-c]pyridine-7-carboxamide] |
| 0.025 µM | Nc1cc(Oc2ccc(NC(=O)c3c4c(cn(-c5ccc(F)cc5)c3=O)CCO4)cc2F)ncn1 [Example 58, N-(4-((6-Aminopyrimidin-4-yl)oxy)-3-fluorophenyl)-5-(4-fluorophenyl)-6-oxo-2,3,5,6-tetrahydrofuro[3,2-c]pyridine-7-carboxamide] |
| 0.00224 µM | O=C(Nc1ccc(Oc2cc(NC3CCOCC3)ncn2)c(F)c1)c1c2c(cn(-c3ccc(F)cc3)c1=O)CCO2 [Example 59] |
| 0.0131 µM | O=C(Nc1ccc(Oc2ccnc(NC3CCOCC3)c2)c(F)c1)c1c2c(cn(-c3ccc(F)cc3)c1=O)CCO2 [Example 60, N-(3-Fluoro-4-((2-((tetrahydro-2H-pyran-4-yl)amino)pyridin-4-yl)oxy)phenyl)-5-(4-fluorophenyl)-6-oxo-2,3,5,6-tetrahydrofuro[3,2-c]pyridine-7-carboxamide] |
| 0.156 µM | CN1CCC(Nc2cc(Oc3ccc(NC(=O)c4c5c(cn(-c6ccc(F)cc6)c4=O)CCO5)cc3F)ncn2)CC1 [Example 61, N-(3-Fluoro-4-((6-((1-methylpiperidin-4-yl)amino)pyrimidin-4-yl)oxy)phenyl)-5-(4-fluorophenyl)-6-oxo-2,3,5,6-tetrahydrofuro[3,2-c]pyridine-7-carboxamide] |
| 0.00172 µM | O=C(Nc1ccc(Oc2ccnc3[nH]ccc23)c(F)c1)c1c2c(cn(-c3ccc(F)cc3)c1=O)CCO2 [Example 65, N-(4-((1H-pyrrolo[2,3-b]pyridin-4-yl)oxy)-3-fluorophenyl)-5-(4-fluorophenyl)-6-oxo-2,3,5,6-tetrahydrofuro[3,2-c]pyridine-7-carboxamide] |
| 0.00863 µM | O=C(Nc1ccc(Oc2ccnc3[nH]cnc23)c(F)c1)c1c2c(cn(-c3ccc(F)cc3)c1=O)CCO2 [Example 66, N-(4-((3H-imidazo[4,5-b]pyridin-7-yl)oxy)-3-fluorophenyl)-5-(4-fluorophenyl)-6-oxo-2,3,5,6-tetrahydrofuro[3,2-c]pyridine-7-carboxamide] |
| 0.015 µM | Cc1nc2c(Oc3ccc(NC(=O)c4c5c(cn(-c6ccc(F)cc6)c4=O)CCO5)cc3F)ccnc2[nH]1 [Example 67, N-(3-Fluoro-4-((2-methyl-3H-imidazo[4,5-b]pyridin-7-yl)oxy)phenyl)-5-(4-fluorophenyl)-6-oxo-2,3,5,6-tetrahydrofuro[3,2-c]pyridine-7-carboxamide] |
| 0.00157 µM | O=C(Nc1ccc(Oc2ccnc3[nH]ncc23)c(F)c1)c1c2c(cn(-c3ccc(F)cc3)c1=O)CCO2 [Example 68, N-(4-((1H-pyrazolo[3,4-b]pyridin-4-yl)oxy)-3-fluorophenyl)-5-(4-fluorophenyl)-6-oxo-2,3,5,6-tetrahydrofuro[3,2-c]pyridine-7-carboxamide] |
| 0.00329 µM | O=C(Nc1ccc(Oc2ccnc3ccoc23)c(F)c1)c1c2c(cn(-c3ccc(F)cc3)c1=O)CCO2 [Example 69, N-(3-Fluoro-4-((furo[3,2-b]pyridin-7-yl)oxy)phenyl)-5-(4-fluorophenyl)-6-oxo-2,3,5,6-tetrahydrofuro[3,2-c]pyridine-7-carboxamide] |
| 0.00366 µM | Cc1cc2c(Oc3ccc(NC(=O)c4c5c(cn(-c6ccc(F)cc6)c4=O)CCO5)cc3F)ccnc2[nH]1 [Example 70, N-(3-Fluoro-4-((2-methyl-1H-pyrrolo[2,3-b]pyridin-4-yl)oxy)-3-fluorophenyl)-5-(4-fluorophenyl)-6-oxo-2,3,5,6-tetrahydrofuro[3,2-c]pyridine-7-carboxamide] |
| 0.0462 µM | O=C(Nc1ccc(Oc2ncnc3[nH]cnc23)c(F)c1)c1c2c(cn(-c3ccc(F)cc3)c1=O)CCO2 [Example 72, N-(4-((9H-purin-6-yl)oxy)-3-fluorophenyl)-5-(4-fluorophenyl)-6-oxo-2,3,5,6-tetrahydrofuro[3,2-c]pyridine-7-carboxamide] |
| 0.00975 µM | O=C(Nc1ccc(Oc2ncnc3c2CCN3)c(F)c1)c1c2c(cn(-c3ccc(F)cc3)c1=O)CCO2 [Example 74, N-(4-((6,7-Dihydro-5H-pyrrolo[2,3-d]pyrimidin-4-yl)oxy)-3-fluorophenyl)-5-(4-fluorophenyl)-6-oxo-2,3,5,6-tetrahydrofuro[3,2-c]pyridine-7-carboxamide] |
| 2.8 µM | O=C(Nc1ccc(Oc2ccnc3ccnn23)c(F)c1)c1c2c(cn(-c3ccc(F)cc3)c1=O)CCO2 [Example 75, N-(3-Fluoro-4-(pyrazolo[1,5-a]pyrimidin-7-yloxy)phenyl)-5-(4-fluorophenyl)-6-oxo-2,3,5,6-tetrahydro[3,2-c]pyridine-7-carboxamide] |
| 0.00132 µM | O=C(Nc1ccc(Oc2ccnc3cc(OCCN4CCOCC4)ccc23)c(F)c1)c1c2c(cn(-c3ccc(F)cc3)c1=O)CCO2 [Example 157, N-(3-Fluoro-4-((7-(2-morpholinylethoxy)quinolin-4-yl)oxy)phenyl)-5-(4-fluorophenyl)-6-oxo-2,3,5,6-tetrahydrofuro[3,2-c]pyridine-7-carboxamide] |
| 0.0119 µM | O=C(Nc1ccc(Oc2ccnc3cc(OCCCN4CCOCC4)ccc23)c(F)c1)c1c2c(cn(-c3ccc(F)cc3)c1=O)CCC2 [Example 159, N-(3-Fluoro-4-((7-(3-morpholinopropoxy)quinolin-4-yl)oxy)phenyl)-2-(4-fluorophenyl)-3-oxo-3,5,6,7-tetrahydro-2H-cyclopenta[c]pyridine-4-carboxamide] |
